Measurements from patent publication US20040082635A1, “Fused cyclic compounds and medicinal use thereof” (priority 2001, published 2004).
Counter-ions that a name gives are not always drawn. Like-named read-outs stand apart in the source and are kept apart here.

Target: T1, HCV polymerase (Hepatitis C virus genotype 1b, UniProt P26663)
T1 construct: a region encoding NS5B (591 amino acids; J Virol 1991 Mar, 65(3), 1105-13) was amplified by PCR; 6 His (N); made in house; host or cells: Escherichia coli
T1 sequence (P26663 2420-3010): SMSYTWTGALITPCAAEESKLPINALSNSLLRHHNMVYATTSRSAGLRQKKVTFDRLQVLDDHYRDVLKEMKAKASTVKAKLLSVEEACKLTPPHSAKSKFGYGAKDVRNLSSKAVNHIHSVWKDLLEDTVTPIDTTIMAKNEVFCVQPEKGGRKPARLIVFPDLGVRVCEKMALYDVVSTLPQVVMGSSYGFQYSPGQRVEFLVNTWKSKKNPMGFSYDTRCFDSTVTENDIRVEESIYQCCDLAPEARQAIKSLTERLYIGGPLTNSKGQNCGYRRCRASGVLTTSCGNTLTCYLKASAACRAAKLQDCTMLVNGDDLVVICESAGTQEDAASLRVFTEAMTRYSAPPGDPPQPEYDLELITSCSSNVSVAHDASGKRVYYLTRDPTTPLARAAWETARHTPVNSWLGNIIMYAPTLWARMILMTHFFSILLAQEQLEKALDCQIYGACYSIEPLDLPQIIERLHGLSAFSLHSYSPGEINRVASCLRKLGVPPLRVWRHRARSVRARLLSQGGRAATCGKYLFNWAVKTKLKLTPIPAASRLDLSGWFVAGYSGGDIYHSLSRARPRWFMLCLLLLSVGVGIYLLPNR
Assay: biochemical

[1] = read-out: HCV polymerase inhibitory activity IC50

O=C(O)c1ccc(C(Oc2ccc(-c3nc4cc(C(=O)O)ccc4n3C3CCCCC3)c(F)c2)c2ccc(F)cc2)cc1 (stereo not shown) [Example 327, 2-{4-[(4-fluorophenyl)(4-carboxyphenyl)methoxy]-2-fluorophenyl}-1-cyclohexylbenzimidazole-5-carboxylic acid]
IC50 [1]: 0.019 µM

O=C(O)c1ccc2c(c1)nc(-c1ccc(OCCCCCc3ccccc3)cc1)n2C1CCCCC1 [Example 98, 1-cyclohexyl-2-[4-(5-phenylpentyloxy)phenyl]benzimidazole-5-carboxylic acid]
IC50 [1]: 0.3 µM

CN(C)C(=O)c1ccc(-c2ccc(Cl)cc2)c(COc2ccc(-c3nc4cc(C(=O)O)ccc4n3C3CCCCC3)cc2)c1 [Example 265, 2-{4-[2-(4-chlorophenyl)-5-dimethylcarbamoylbenzyloxy]phenyl}-1-cyclohexylbenzimidazole-5-carboxylic acid hydrochloride]
IC50 (HCV polymerase inhibitory activity IC50): 0.014 µM

O=C(O)c1ccc2c(c1)nc(-c1ccc(OCc3ccncc3)cc1)n2C1CCCC1 [Example 49, 1-cyclopentyl-2-[4-(4-pyridylmethoxy)phenyl]benzimidazole-5-carboxylic acid hydrochloride]
IC50 [1]: 0.94 µM

CC(=O)N1CCC(COc2cccc(Oc3ccc(-c4nc5cc(C(=O)O)ccc5n4C4CCCCC4)cc3)c2)CC1 [Example 176, 2-{4-[3-{(1-acetyl-4-piperidyl)methoxy}phenoxy]phenyl}-1-cyclohexylbenzimidazole-5-carboxylic acid]
IC50 [1]: 0.053 µM

O=C(O)c1ccc2c(c1)nc(-c1ccc(OCc3sc(C(=O)NCCO)nc3-c3ccc(F)cc3)cc1F)n2C1CCCCC1 [Example 430, 2-{4-[{4-(4-fluorophenyl)-2-{(2-hydroxyethyl)carbamoyl}thiazol-5-yl}methoxy]-2-fluorophenyl}-1-cyclohexylbenzimidazole-5-carboxylic acid hydrochloride]
IC50 [1]: 0.017 µM

O=C(O)c1cccc(-c2ccc(Cl)cc2COc2ccc(-c3nc4cc(C(=O)O)ccc4n3C3CCCCC3)cc2)c1 [Example 296, 2-{4-[2-(3-carboxyphenyl)-5-chlorobenzyloxy]phenyl}-1-cyclohexylbenzimidazole-5-carboxylic acid]
IC50 [1]: 0.034 µM

CC(C)NC(=O)c1ccc(-c2ccc(F)cc2F)c(COc2ccc(-c3nc4cc(C(=O)O)ccc4n3C3CCCCC3)c(F)c2)c1 [Example 397, 2-{4-[2-(2,4-difluorophenyl)-5-(isopropylcarbamoyl)benzyloxy]-2-fluorophenyl}-1-cyclohexylbenzimidazole-5-carboxylic acid hydrochloride]
IC50 [1]: 0.037 µM

COc1c(C(=O)O)ccc2c1nc(-c1ccc(OCc3cc(C(=O)NC(C)C)ccc3-c3ccc(Cl)cc3)cc1F)n2C1CCCCC1 [Example 450, 2-[4-{2-(4-chlorophenyl)-5-(isopropylaminocarbonyl)benzyloxy}-2-fluorophenyl]-1-cyclohexyl-4-methoxybenzimidazole-5-carboxylic acid hydrochloride]
IC50 [1]: 0.04 µM

CN1CCC(COc2cccc(Oc3ccc(-c4nc5cc(C(=O)O)ccc5n4C4CCCCC4)cc3)c2)CC1 [Example 211, 1-cyclohexyl-2-{4-[3-{(1-methyl-4-piperidyl)methoxy}phenoxy]-phenyl}benzimidazole-5-carboxylic acid]
IC50 [1]: 0.059 µM

CC1(C)COC(c2ccc(-c3ccc(Cl)cc3)c(COc3ccc(-c4nc5cc(C(=O)O)ccc5n4C4CCCCC4)cc3)c2)=N1 [Example 353, 2-{4-[2-(4-chlorophenyl)-5-(4,4-dimethyl-2-oxazolin-2-yl)benzyloxy]phenyl}-1-cyclohexylbenzimidazole-5-carboxylic acid dihydrochloride]
IC50 [1]: 0.023 µM

Cc1cnc(-c2ccc(Br)c(COc3ccc(-c4nc5cc(C(=O)O)ccc5n4C4CCCCC4)cc3)c2)o1 [Example 363, 2-{4-[2-bromo-5-(5-methyloxazol-2-yl)benzyloxy]phenyl}-1-cyclohexylbenzimidazole-5-carboxylic acid hydrochloride]
IC50 [1]: 0.11 µM

CC(=O)N(c1ccc(-c2ccc(Cl)cc2)c(COc2ccc(-c3nc4cc(C(=O)O)ccc4n3C3CCCCC3)c(F)c2)c1)C(C)C [Example 469, 2-[4-{2-(4-chlorophenyl)-5-(N-acetyl-N-isopropylamino)-benzyloxy}-2-fluorophenyl]-1-cyclohexylbenzimidazole-5-carboxylic acid hydrochloride]
IC50 [1]: 0.024 µM

O=C(O)c1ccc2c(c1)nc(-c1ccc(OCc3cc(C(=O)Nc4ccccc4)ccc3-c3ccc(Cl)cc3)cc1)n2C1CCCCC1 [Example 332, 2-{4-[2-(4-chlorophenyl)-5-(phenylcarbamoyl)benzyloxy]phenyl}-1-cyclohexylbenzimidazole-5-carboxylic acid hydrochloride]
IC50 [1]: 0.023 µM

CC(C)NC(=O)c1ccc(-c2ccc(Cl)cc2)c(COc2ccc(-c3nc4cc(C(=O)O)ccc4n3C3CCCC3)c(F)c2)c1 [Example 412, 2-{4-[2-(4-chlorophenyl)-5-(isopropylcarbamoyl)benzyloxy]-2-fluorophenyl}-1-cyclopentylbenzimidazole-5-carboxylic acid hydrochloride]
IC50 [1]: 0.019 µM

O=C(O)c1ccc2c(c1)nc(-c1ccc(OCc3cc(OCCO)ccc3-c3ccc(Cl)cc3)cc1)n2C1CCCCC1 [Example 335, 2-{4-[2-(4-chlorophenyl)-5-(2-hydroxyethoxy)benzyloxy]phenyl}-1-cyclohexylbenzimidazole-5-carboxylic acid hydrochloride]
IC50 [1]: 0.013 µM

CC(C)N(C)C(=O)c1ccc(-c2ccc(Cl)cc2)c(COc2ccc(-c3nc4cc(C(=O)O)ccc4n3C3CCCCC3)cc2)c1 [Example 331, 2-{4-[2-(4-chlorophenyl)-5-(N-isopropyl-N-methylcarbamoyl)-benzyloxy]phenyl}-1-cyclohexylbenzimidazole-5-carboxylic acid hydrochloride]
IC50 [1]: 0.017 µM

O=C(O)c1ccc2c(c1)nc(-c1ccc(Oc3ccccc3O)cc1)n2C1CCCCC1 [Example 106, 1-cyclohexyl-2-[4-(2-hydroxyphenoxy)phenyl]benzimidazole-5-carboxylic acid]
IC50 [1]: 0.4 µM

CC(C)(C)c1cc(COc2ccc(-c3nc4cc(C(=O)O)ccc4n3C3CCCCC3)cc2)cc(C(C)(C)C)c1 [Example 83, 1-cyclohexyl-2-[4-(3,5-di-tert-butylbenzyloxy)phenyl]-benzimidazole-5-carboxylic acid]
IC50 [1]: 0.52 µM

O=C(O)c1ccc2c(c1)nc(-c1ccc(OCc3cc(C(=O)N4CCCCC4)ccc3-c3ccc(Cl)cc3)cc1F)n2C1CCCCC1 [Example 286, 2-{4-[2-(4-chlorophenyl)-5-piperidinocarbonylbenzyloxy]-2-fluorophenyl}-1-cyclohexylbenzimidazole-5-carboxylic acid]
IC50 [1]: 0.014 µM

CC(C)C(=O)Nc1ccc(-c2ccc(Cl)cc2)c(COc2ccc(-c3nc4cc(C(=O)O)ccc4n3C3CCCCC3)c(F)c2)c1 [Example 452, 2-[4-{2-(4-chlorophenyl)-5-(isopropylcarbonylamino)benzyloxy}-2-fluorophenyl]-1-cyclohexylbenzimidazole-5-carboxylic acid hydrochloride]
IC50 [1]: 0.028 µM

O=C(O)c1ccc2c(c1)nc(-c1ccc(Oc3cccc(OCCc4ccccc4)c3)cc1)n2C1CCCCC1 [Example 124, 1-cyclohexyl-2-[4-(3-phenethyloxyphenoxy)phenyl]benzimidazole-5-carboxylic acid]
IC50 [1]: 0.091 µM
